Experimental data taken from patent publication US20260198495A1, “BINARY INSECTICIDE COMPOSITION AND USE THEREOF” (SHENYANG SINOCHEM AGROCHEMICALS R & D CO., LTD., priority 2022, published 2026).
Converted amounts (≈) assume the structure as drawn.

What was measured:
Type in all cases: in vivo
[1] = tested on: 2nd-instar larvae of Chilo suppressalis (Walker); experiment: Joint toxicity of I-72 + azadirachtin, Example 36, Table 36; conditions: A = compound I-72, B = azadirachtin, rice stalk spraying, 72 hours, chlorantraniliprole-resistant strain, read-out: LC50
Excerpt: Test target: 2nd-instar larvae of Chilo suppressalis (Walker). The insect source was collected from Nanchang, Jiangxi Province, and it is the 11th generation continuously cultured indoors, with a relatively high resistance level to amide pesticides such as chlorantraniliprole.
Experimental method: the spraying method was adopted. Rice stalks with the same length and thickness were selected, cut into the same length, and evenly sprayed with the pesticide solution in the order from low dosage to high dosage according to the experimental design, with 1.5 mL of the pesticide solution for each treatment. The stalks were placed in a 6-cm-diameter Petri dish with filter paper. After natural air-drying in the shade, uniform and healthy test insects were introduced, with 10 insects for each treatment and 4 replicates for each treatment. In addition, a blank control was set up. The number of dead and live insects was investigated 72 hours later. The corrected mortality rate was calculated using the Abbott's formula, and the DPS data processing software was used for statistical analysis to calculate the toxicities (LC50 values) of the single test pesticides and the mixtures under the test ratios.
The test conditions, the preparation of the pesticide solution and the evaluation method were the same as those in Example 1.

[2] = tested on: 3rd-instar larvae of Ostrinia furnacalis Guenee; experiment: Joint toxicity of I-72 + pymetrozine, Example 79, Table 79; conditions: A = compound I-72, B = pymetrozine, corn stem dipping, 72 hours, read-out: LC50
Method: Test target: 3rd-instar larvae of Ostrinia furnacalis Guenee.
(§1) Preparation of the pesticide solution: according to different test requirements, the test samples were accurately weighed respectively with an electronic analytical balance. The technical pesticides were dissolved in acetone, and then diluted with 0.1% Tween 80 water into a series of pesticide solutions with a certain concentration gradient according to the experimental design dosage.
Experimental method: first, tender corn stems were selected and dipped in the prepared pesticide solution for 10 s in the order from low dosage to high dosage according to the experimental design. After natural air-drying in the shade, they were placed in a 9-cm-diameter Petri dish with filter paper, and uniform and healthy test insects were introduced, with 10 insects for each treatment and 3 replicates for each treatment. In addition, a blank control was set up.
(§2) The treated test materials were placed in an observation room, and the temperature, humidity and illumination of the observation room could be adjusted as needed. The number of dead and live insects was investigated 72 hours later. […] Then, the co-toxicity coefficient of each ratio was calculated using the Sun Y-P method to evaluate the mixing effect (the same as in Example 1).

Spodoptera exigua Hübner = experiment: Field efficacy trial of I-72 and Spodoptera exigua Hübner nucleopolyhedrovirus, Example 87, Table 87; conditions: spraying
Method: This trial was arranged in the field trial shed area of the Wuhan Vegetable Research Institute. The spraying method was adopted for pesticide application. The investigation method was to take samples at 5 points, with 2 fixed plants at each point. A total of 10 plants were investigated in each plot, and the trial was repeated four times. The population base of pests was investigated before the pesticide application, and investigations were performed 3 days and 7 days after the pesticide application. The amount of water used per mu was 30L. The calculation method for the efficacy of the test pesticides is as follows:
Test pesticides: A: Spodoptera exigua Hübner nucleopolyhedrovirus suspension with 3 billion PIBs (produced by Henan Jiyuan Baiyun Industrial Co., Ltd.); and B: compound I-72 (dissolved in acetone, 0.1% Tween 80 was added, and a 10% stock solution was prepared for use).

[3] = tested on: adult Phyllotreta vittuta Fabr.; experiment: Joint toxicity of I-72 + acetamiprid, Example 65, Table 65; conditions: A = compound I-72, B = acetamiprid; potted cabbage seedling spraying; 72 hours; read-out: LC50
Method: Test target: adult Phyllotreta vittuta Fabr.
as §1
Experimental method: first, uniform and consistent potted cabbage seedlings were selected. Then, uniform spraying was performed with the pesticide solution in the order from low dosage to high dosage according to the experimental design. After air-drying in the shade, adult flea beetles were transferred onto the treated cabbage seedlings, and then glass covers were put on them, with about 30-40 adult flea beetles on each seedling and 3 replicates for each treatment. In addition, a blank control was set up.
The treated test materials were placed in an observation room, and the temperature, humidity and illumination of the observation room could be adjusted as needed. The number of dead and live insects was investigated 72 hours later.

Aphis craccivora nymphs = experiment: whole plant or invertebrate; conditions: A = compound I-72, B = sulfoxaflor, broad bean seedling spraying, 48 hours, read-out: LC50
Method: Test target: Aphis craccivora nymphs, a sensitive strain reared indoors.
as §1
Experimental method: first, broad bean seedlings with uniform and consistent Aphis craccivora were selected, with about 30-40 insects on each seedling. Then, they were evenly sprayed with the pesticide solution in the order from low dosage to high dosage according to the experimental design, with 1.5 mL of the solution for each leaf and 3 replicates for each treatment. In addition, a blank control was set up.
The treated test materials were placed in an observation room, and the temperature, humidity and illumination of the observation room could be adjusted as needed. The number of dead and live insects was investigated 48 hours later.

[4] = tested on: Nilaparvata lugens (Stal) nymphs; experiment: Joint toxicity of I-72 + triflumezopyrim, Example 75, Table 75; conditions: Nilaparvata lugens; A = compound I-72, B = triflumezopyrim; potted-seedling spraying; 72 hours; read-out: LC50
Method: Test target: Nilaparvata lugens (Stal) nymphs, a sensitive strain reared indoors.
as §1
Experimental method: the activity of the mixture against the Nilaparvata lugens (Stal) nymphs was determined by adopting the potted-seedling spraying method. First, rice seedlings were planted in culture pots. Uniform spraying was performed with the pesticide solution in the order from low dosage to high dosage according to the experimental design, with 2 mL for each seedling. Then, Nilaparvata lugens nymphs of uniform size were transferred onto the rice seedlings, with 3 replicates for each treatment. In addition, a blank control was set up.
as §2

[5] = tested on: adult Tetranychus urticae Koch; experiment: Joint toxicity of I-72 + spirobudifen, Example 29, Table 29; conditions: A = compound I-72, B printed spirotetramat (title: spirobudifen), potted-seedling spraying, 72 hours, read-out: LC50
Method: as §1
In addition, a blank control was set up.
The treated test materials were placed in an observation room, and the temperature, humidity and illumination of the observation room could be adjusted as needed.

Q: For CN(C(=O)c1ccc2c(c1)OC(F)(F)O2)c1cccc(C(=O)Nc2c(Br)cc(C(F)(C(F)(F)F)C(F)(F)F)cc2OC(F)F)c1F [Compound I-72], which LC50 [1] is on record?
A: Its LC50 is 0.822 µg/mL.

Q: And the LC50 [2]?
A: The LC50 was 0.801 µg/mL.

Q: What about the “Control efficacy 3 days after pesticide application” value (shortened to “Control efficacy 3 days”) (Spodoptera exigua Hübner; dose 6 ml per mu) of the same compound?
A: Its value is 59.8%.

Q: What about the “Control efficacy 7 days after pesticide application” value (“Control efficacy 7 days” for short) (Spodoptera exigua Hübner; dose 6 ml per mu) of the same compound?
A: The value was 71.5%.

Q: And the “Control efficacy 3 days” value (Spodoptera exigua Hübner; dose 9 ml per mu)?
A: Its value is 66.5%.

Q: What about the “Control efficacy 7 days” value (Spodoptera exigua Hübner; dose 9 ml per mu) of the same compound?
A: Its value is 75.2%.

Q: And the “Control efficacy 3 days” value (Spodoptera exigua Hübner; dose 12 ml per mu)?
A: Its value is 72.8%.

Q: And the “Control efficacy 7 days” value (Spodoptera exigua Hübner; dose 12 ml per mu)?
A: Its value is 82.4%.

Q: And the LC50 [3]?
A: Its LC50 is 1.14 µg/mL.

Q: What about the LC50 (Aphis craccivora nymphs) of the same compound?
A: Its LC50 is 2.52 µg/mL (≈ 3.41 µM).

Q: And the LC50 [4]?
A: The LC50 was 285 µg/mL.

Q: And the LC50 [5]?
A: Its LC50 is 41.6 µg/mL.
